Where two headings read alike, the source gives them in different places.
Experiments:
[1] = target: GST-RIPK2 fusion protein (human RIPK2 amino acids 1-310) (Homo sapiens (Human), UniProt O43353); test: RIPK2 binding competition assay (TR-FRET, Tracer 199)
[2] = system: NF-κB pathway (SEAP) in THP1-Dual cells; test: THP-1 Dual cell SEAP assay (L18-MDP stimulated); format: cell-based; conditions: Homo sapiens, THP1-Dual, read-out: NFkB THP1 IC50
[3] = read-out: RIPK2 IC50, RIPK2 binding competition assay

Chain of GST-RIPK2 fusion protein (human RIPK2 amino acids 1-310) (O43353 1-310): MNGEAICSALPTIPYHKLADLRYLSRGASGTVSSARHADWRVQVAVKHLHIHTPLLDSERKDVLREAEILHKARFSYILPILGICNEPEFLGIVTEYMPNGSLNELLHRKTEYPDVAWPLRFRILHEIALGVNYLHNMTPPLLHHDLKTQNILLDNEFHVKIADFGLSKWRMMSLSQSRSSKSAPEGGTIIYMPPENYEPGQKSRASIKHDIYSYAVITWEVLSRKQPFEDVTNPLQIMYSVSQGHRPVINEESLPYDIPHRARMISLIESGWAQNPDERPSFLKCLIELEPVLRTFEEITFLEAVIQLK

COc1cc2ncc(-c3cc(F)nc(NC[C@H]4CCNC(=O)C4)c3)n2cc1S(=O)(=O)C(C)(C)C (single isomer, unassigned) [Example 239, (4R or S)-4-[({6-fluoro-4-[7-methoxy-6-(2-methylpropane-2-sulfonyl)imidazo[1,2-a]pyridin-3-yl]pyridin-2-yl}amino)methyl]pi peridin-2-one]
IC50 [1]: < 0.001 µM
IC50 [2]: < 0.05 µM

COc1cc2ncc(-c3cc(F)nc(NCC[C@H]4CNC(=O)C4)c3)n2cc1S(=O)(=O)C(C)(C)C (single isomer, unassigned) [Example 240, (4R or S)-4-[2-({6-fluoro-4-[7-methoxy-6-(2-methylpropane-2-sulfonyl)imidazo[1,2-a]pyridin-3-yl]pyridin-2-yl}amino)ethyl] pyrrolidin-2-one]
IC50 [1]: < 0.001 µM
IC50 [2]: < 0.05 µM

COc1cc2ncc(-c3cc(F)nc(NCC[C@@H]4CNC(=O)C4)c3)n2cc1S(=O)(=O)C(C)(C)C (single isomer, unassigned) [Example 241, (4R or S)-4-[2-({6-fluoro-4-[7-methoxy-6-(2-methylpropane-2-sulfonyl)imidazo[1,2-a]pyridin-3-yl]pyridin-2-yl}amino)ethyl] pyrrolidin-2-one]
IC50 [1]: < 0.001 µM
IC50 [2]: < 0.05 µM

COc1cc2ncc(-c3cc(F)nc(N[C@@H]4CCCC[C@H]4O)c3)n2cc1S(=O)(=O)C(C)(C)C (single isomer, unassigned) [Example 244, trans-(15,2S or 1R,2R)-2-({6-fluoro-4-[7-methoxy-6-(2-methylpropane-2-sulfonyl)imidazo[1,2-a]pyridin-3-yl]pyridin-2-yl}amino)cyclohexan-1-ol]
IC50 [1]: 0.0025 to 0.02 µM
IC50 [2]: 0.25 to 1 µM

COc1cc2ncc(-c3cc(F)nc(N[C@H]4CCCC[C@@H]4O)c3)n2cc1S(=O)(=O)C(C)(C)C (single isomer, unassigned) [Example 245, trans-(15,2S or 1R,2R)-2-({6-fluoro-4-[7-methoxy-6-(2-methylpropane-2-sulfonyl)imidazo[1,2-a]pyridin-3-yl]pyridin-2-yl}amino)cyclohexan-1-ol]
IC50 [1]: 0.0025 to 0.02 µM
IC50 [2]: 0.25 to 1 µM

CC(C)(C)S(=O)(=O)c1ccc2ncc(-c3cc(F)nc(F)c3)n2c1 [Example 1, 6-(tert-butylsulfonyl)-3-(2,6-difluoropyridin-4-yl)imidazo[1,2-a]pyridine]
IC50 [1, 3]: > 0.02 µM
IC50 [2]: > 1 µM

COc1cc2ncc(-c3cc(N)c(OC)c(F)c3)n2cc1S(=O)(=O)C(C)(C)C [Example 2, 5-(6-(tert-butylsulfonyl)-7-methoxyimidazo[1,2-a]pyridin-3-yl)-3-fluoro-2-methoxyaniline]
IC50 [1]: 0.0025 to 0.02 µM
IC50 [2]: > 1 µM

COc1cc2ncc(-c3cc(F)c(C#N)c(F)c3)n2cc1S(=O)(=O)C(C)(C)C [Example 3, 4-(6-(tert-butylsulfonyl)-7-methoxyimidazo[1,2-a]pyridin-3-yl)-2,6-difluorobenzonitrile]
IC50 [1, 3]: > 0.02 µM
IC50 [2]: > 1 µM

COc1cc2ncc(-c3cn[nH]c3)n2cc1S(=O)(=O)C(C)(C)C [Example 4, 6-(tert-butylsulfonyl)-7-methoxy-3-(1H-pyrazol-4-yl)imidazo[1,2-a]pyridine]
IC50 [1]: 0.0025 to 0.02 µM
IC50 [2]: 0.25 to 1 µM

COc1cc2ncc(-c3cc(N)nc(C(F)(F)F)c3)n2cc1S(=O)(=O)C(C)(C)C [Example 6, 4-(6-(tert-butylsulfonyl)-7-methoxyimidazo[1,2-a]pyridin-3-yl)-6-(trifluoromethyl) pyridin-2-amine]
IC50 [1]: 0.0025 to 0.02 µM
IC50 [2]: > 1 µM

COc1cc2ncc(-c3cc(N)c(=O)n(C)c3)n2cc1S(=O)(=O)C(C)(C)C [Example 7, 3-amino-5-(6-(tert-butylsulfonyl)-7-methoxyimidazo[1,2-a]pyridin-3-yl)-1-methylpyridin-2(1H)-one]
IC50 [1]: 0.0025 to 0.02 µM
IC50 [2]: 0.25 to 1 µM

COc1cc2ncc(-c3cc(Cl)nc(Cl)c3)n2cc1S(=O)(=O)C(C)(C)C [Example 8, 6-(tert-butylsulfonyl)-3-(2,6-dichloropyridin-4-yl)-7-methoxyimidazo[1,2-a]pyridine]
IC50 [1, 3]: > 0.02 µM
IC50 [2]: > 1 µM

COc1cc2ncc(-c3ccc(F)nc3F)n2cc1S(=O)(=O)C(C)(C)C [Example 9, 6-(tert-butylsulfonyl)-3-(2,6-difluoropyridin-3-yl)-7-methoxyimidazo[1,2-a]pyridine]
IC50 [1, 3]: > 0.02 µM
IC50 [2]: > 1 µM

CCCS(=O)(=O)Nc1cc(-c2cnc3cc(OC)c(S(=O)(=O)C(C)(C)C)cn23)cc(OC)c1OC [Example 10, N-(5-(6-(tert-butylsulfonyl)-7-methoxyimidazo[1,2-a]pyridin-3-yl)-2,3-dimethoxyphenyl) propane-1-sulfonamide]
IC50 [1, 3]: < 0.001 µM
IC50 [2]: < 0.05 µM

COc1cc2ncc(-c3cc(F)cc([N+](=O)[O-])c3)n2cc1S(=O)(=O)C(C)(C)C [Example 13, 3-(3-fluoro-5-nitrophenyl)-7-methoxy-6-(2-methylpropane-2-sulfonyl)imidazo[1,2-a]pyridine]
IC50 [1]: > 0.02 µM
IC50 [2]: > 1 µM

COc1cc2ncc(-c3ccc(N)nc3F)n2cc1S(=O)(=O)C(C)(C)C [Example 14, 5-(6-(tert-butylsulfonyl)-7-methoxyimidazo[1,2-a]pyridin-3-yl)-6-fluoropyridin-2-amine]
IC50 [1, 3]: > 0.02 µM
IC50 [2]: > 1 µM

COc1cc2ncc(-c3ccc(N)nc3)n2cc1S(=O)(=O)C(C)(C)C [Example 15, 5-(6-(tert-butylsulfonyl)-7-methoxyimidazo[1,2-a]pyridin-3-yl)pyridin-2-amine]
IC50 [1, 3]: > 0.02 µM
IC50 [2]: > 1 µM

COc1cc2ncc(-c3ccc(N(C)C)nc3)n2cc1S(=O)(=O)C(C)(C)C [Example 16, 5-(6-(tert-butylsulfonyl)-7-methoxyimidazo[1,2-a]pyridin-3-yl)-N,N-dimethylpyridin-2-amine]
IC50 [1, 3]: > 0.02 µM
IC50 [2]: > 1 µM

COc1cc2ncc(-c3cnc(N)c(OC)c3)n2cc1S(=O)(=O)C(C)(C)C [Example 17, 5-(6-(tert-butylsulfonyl)-7-methoxyimidazo[1,2-a]pyridin-3-yl)-3-methoxypyridin-2-amine]
IC50 [1, 3]: > 0.02 µM
IC50 [2]: > 1 µM

COc1cc2ncc(-c3ccc(N)cc3)n2cc1S(=O)(=O)C(C)(C)C [Example 18, 4-(6-(tert-butylsulfonyl)-7-methoxyimidazo[1,2-a]pyridin-3-yl)aniline]
IC50 [1, 3]: > 0.02 µM
IC50 [2]: > 1 µM

COc1cc2ncc(-c3cnc(N)c(C(F)(F)F)c3)n2cc1S(=O)(=O)C(C)(C)C [Example 19, 5-(6-(tert-butylsulfonyl)-7-methoxyimidazo[1,2-a]pyridin-3-yl)-3-(trifluoromethyl)pyridin-2-amine]
IC50 [1, 3]: > 0.02 µM
IC50 [2]: > 1 µM

COc1cc2ncc(-c3ccc(N)c(F)c3)n2cc1S(=O)(=O)C(C)(C)C [Example 20, 4-(6-(tert-butylsulfonyl)-7-methoxyimidazo[1,2-a]pyridin-3-yl)-2-fluoroaniline]
IC50 [1]: 0.0025 to 0.02 µM
IC50 [2]: 0.25 to 1 µM

COc1cc2ncc(-c3cnc(N)cc3F)n2cc1S(=O)(=O)C(C)(C)C [Example 21, 5-(6-(tert-butylsulfonyl)-7-methoxyimidazo[1,2-a]pyridin-3-yl)-4-fluoropyridin-2-amine]
IC50 [1, 3]: > 0.02 µM
IC50 [2]: > 1 µM

COc1cc2ncc(-c3cnc(N)c(Cl)c3)n2cc1S(=O)(=O)C(C)(C)C [Example 22, 5-(6-(tert-butylsulfonyl)-7-methoxyimidazo[1,2-a]pyridin-3-yl)-3-chloropyridin-2-amine]
IC50 [1]: 0.0025 to 0.02 µM
IC50 [2]: > 1 µM

COc1cc2ncc(-c3cnc(N)c(C#N)c3)n2cc1S(=O)(=O)C(C)(C)C [Example 23, 2-amino-5-(6-(tert-butylsulfonyl)-7-methoxyimidazo[1,2-a]pyridin-3-yl)nicotinonitrile]
IC50 [1, 3]: > 0.02 µM
IC50 [2]: > 1 µM

COc1cc(N)cc(-c2cnn3ccc(S(=O)(=O)C(C)(C)C)cc23)c1 [Example 24, 3-(5-(tert-butylsulfonyl)pyrazolo [1,5-a]pyridin-3-yl)-5-methoxyaniline]
IC50 [1, 3]: > 0.02 µM
IC50 [2]: > 1 µM

COc1ccc(-c2cnn3ccc(S(=O)(=O)C(C)(C)C)cc23)cc1N [Example 25, 5-(5-(tert-butylsulfonyl)pyrazolo [1,5-a]pyridin-3-yl)-2-methoxyaniline]
IC50 [1, 3]: > 0.02 µM
IC50 [2]: > 1 µM

CC(C)(C)S(=O)(=O)c1ccn2ncc(-c3ccc(N)nc3)c2c1 [Example 26, 5-(5-(tert-butylsulfonyl)pyrazolo [1,5-a]pyridin-3-yl)pyridin-2-amine]
IC50 [1, 3]: > 0.02 µM
IC50 [2]: > 1 µM

COc1cc2ncc(-c3ccc(F)c(N)c3F)n2cc1S(=O)(=O)C(C)(C)C [Example 27, 3-(6-(tert-butylsulfonyl)-7-methoxyimidazo[1,2-a]pyridin-3-yl)-2,6-difluoroaniline]
IC50 [1]: 0.0025 to 0.02 µM
IC50 [2]: > 1 µM

COc1cc2ncc(-c3ccc(OC)c(N)c3F)n2cc1S(=O)(=O)C(C)(C)C [Example 28, 3-(6-(tert-butylsulfonyl)-7-methoxyimidazo[1,2-a]pyridin-3-yl)-2-fluoro-6-methoxyaniline]
IC50 [1]: 0.0025 to 0.02 µM
IC50 [2]: > 1 µM

COc1cc2ncc(-c3cccc(N)c3F)n2cc1S(=O)(=O)C(C)(C)C [Example 29, 3-(6-(tert-butylsulfonyl)-7-methoxyimidazo[1,2-a]pyridin-3-yl)-2-fluoroaniline]
IC50 [1]: 0.0025 to 0.02 µM
IC50 [2]: > 1 µM

COc1cc2ncc(-c3cncc(N)c3)n2cc1S(=O)(=O)C(C)(C)C [Example 30, 5-(6-(tert-butylsulfonyl)-7-methoxyimidazo[1,2-a]pyridin-3-yl)pyridin-3-amine]
IC50 [1, 3]: > 0.02 µM
IC50 [2]: > 1 µM

COc1cc2ncc(-c3cnc(N)c(N)c3)n2cc1S(=O)(=O)C(C)(C)C [Example 31, 5-(6-(tert-butylsulfonyl)-7-methoxyimidazo[1,2-a]pyridin-3-yl)pyridine-2,3-diamine]
IC50 [1, 3]: > 0.02 µM
IC50 [2]: > 1 µM

COc1cc2ncc(-c3cc(N)ccc3F)n2cc1S(=O)(=O)C(C)(C)C [Example 32, 3-(6-(tert-butylsulfonyl)-7-methoxyimidazo[1,2-a]pyridin-3-yl)-4-fluoroaniline]
IC50 [1, 3]: > 0.02 µM
IC50 [2]: > 1 µM
